Results reported in US12466840B2, “Small molecule inhibitors of KRAS proteins” (Merck Sharp & Dohme LLC, priority 2023, dated 2025).
pIC50: −log10 of the molar value. Like-named read-outs stand apart in the source and are kept apart here.

Columns and labels:
[1] = system: SW620 cells (homozygous KRAS-G12V); test: Cellular phospho-ERK assay, SW620 cells; type: cell-based; details: p-ERK vs. total ERK, read-out: SW620 pERK IC50
Procedure: Procedure for Cellular Phospho-ERK Assay in KRAS Wild Type and Mutant (G12D, G12V) Cell Lines
MKN-1 cells (JCRB JCRB0252) containing amplified wild-type KRAS, were cultured in growth medium that contains RPMI 1640-GlutaMAX™-I (ThermoFisher Scientific 61870) containing 10% heat inactivated fetal bovine serum (ThermoFisher Scientific 10091148), 1 mM sodium pyruvate and 10 mM HEPES. AsPC-1 cells (ATCC® CRL-1682™), containing homozygous KRAS-G12D activating mutation, were cultured in T150 flask in growth medium (RPMI medium 1640-GlutaMAX™-I (ThermoFisher Scientific 61870) containing 10% fetal bovine serum (ThermoFisher Scientific 10091148)). SW620 cells (ATCC® CRL-227™) containing homozygous KRAS-G12V activating mutation, were cultured in growth medium that contains RPMI 1640-GlutaMAX™-I (ThermoFisher Scientific 61870) containing 10% heat inactivated fetal bovine serum (ThermoFisher Scientific 10091148).
Cells for the assay were harvested in growth medium after TrypLE (ThermoFisher scientific 12604021) digestion and were seeded in a 384-well collagen coated cell culture plate (Corning 356702) at a density of 10,000-15,000 cells/[…]/well, and incubated at 37° C., 5% CO2 overnight. The compound (with 10 mM stock concentration) dose-response titrations were prepared [30 μM final ERK detection assay concentration and 1:3 dilutions, 10-point dose response] and appropriate amounts (270 nL) of test compounds were dispensed in a 384-well intermediate plate using an Echo 550 liquid handler. 30 μL/well of RPMI medium 1640-GlutaMAX™-I was added to the intermediate plate and the contents of the intermediate plate (10 μL/well) were then transferred to the 384-well collagen coated cell culture plate, which was incubated at 37° C., 5% CO2 for 2 h. After removal of medium from the collagen coated cell culture plate, cells were lysed in lysis buffer from Alpha SureFire® Ultra™ Multiplex p-ERK and total ERK assay kit (PerkinElmer MPSU-PTERK) containing Halt™ Protease and Phosphatase inhibitor cocktail (ThermoFisher Scientific 78446) at room temperature with constant shaking at 300 rpm for 30 minutes. The cell lysates were then transferred to an OptiPlate-384 plate (PerkinElmer 6005620), and the phosphorylation of ERK (p-ERK) and total ERK levels were detected by Alpha SureFire® Ultra™ Multiplex p-EEK kit and total ERK assay kit (PerkinElmer MPSU-PTERK) following the manufacturer's protocol. Assay plates were read on a EnVision Multimode Plate Reader (PerkinElmer), and the ratio of p-ERK vs. total ERK in each well was used as the final readout. Dose response curves were analyzed using a 4-parameter logistic model to calculate IC50 values using Spotfire software.

KRAS WT = KRAS WT (Homo sapiens (Human), UniProt P01116); test: SOS-catalyzed nucleotide exchange assay (GNE), KRAS WT; type: biochemical; details: TR-FRET, 60 min preincubation
From the text: (§1) Procedure for SOS-Catalyzed Nucleotide Exchange Assay for KRAS-WT, G12C/D/V/A/R/S, G13D, Q61H, HRAS-WT, and NRAS-WT
(§2) Recombinant KRAS-G12C protein used in this assay has an additional triple mutation (C51S/C80L/C118S). Whereas KRAS-WT, G12D/V/A/S/R, G13D, Q61H, HRAS and NRAS are in context of their WT protein sequence background. Specifically, the SOS-catalyzed nucleotide exchange assay utilizes a preformed TR-FRET complex containing a specific biotinylated RAS protein (KRAS-WT, G12C/V/D/A/S/R, G13D, Q61H, HRAS-WT, NRAS-WT; described above) with Bodipy-GDP, and Terbium-streptavidin. Compounds are preincubated with this complex for 60 minutes. Subsequently, recombinant human SOS protein and unlabeled GTP are added to initiate the exchange reaction. Small molecule inhibitors stabilize the Bodipy-GDP complex whereas the untreated protein rapidly exchanges Bodipy-GDP for unlabeled GTP resulting in reduced TR-FRET signal.
(§3) To assemble the preformed TR-FRET complexes, each biotinylated RAS protein is diluted to 2 μM in an EDTA Buffer (20 mM HEPES pH 7.5, 50 mM sodium chloride, 10 mM EDTA, and 0.01% Tween) and incubated at room temperature for one hour. This mixture is then further diluted to 90 nM in an Assay Buffer (20 mM HEPES pH 7.5, 150 mM sodium chloride, 10 mM magnesium chloride, and 0.005% Tween) containing 15 nM of Terbium-Streptavidin (Invitrogen, catalog #PV3577) and 900 nM of Bodipy-GDP (Invitrogen, catalog #G22360) and incubated at room temperature for six hours. It should be noted that this preformed TR-FRET complex for each of the RAS protein were made ahead of time, aliquoted and stored at −80° C. until the day of the experiment.
(§4) Each test compound (10 mM stock in DMSO) is diluted in DMSO to make a final-10-point, 3-fold dilution and is acoustically dispensed into a 384-well assay plate (Corning, catalog #3820) using an Echo 550 (Labcyte). Each well of the assay plate receives 3 μL of a specific 3×RAS preformed TR-FRET complex and 3 μL of Assay Buffer and is incubated at room temperature for 60 minutes (preincubation time). Each well then receives 3 μL of 3× recombinant human SOS protein and GTP (Sigma, G8877) in Assay Buffer and is incubated at room temperature for 30 minutes (G13D), 60 minutes (KRAS WT/G12C/D, H/NRAS) or 90 minutes for G12A/R/S/V and Q61H. The final reaction in each well of 9 μL consists of 3 mM GTP, specific Ras and SOS proteins in the following concentrations: KRAS-G12C/SOS=3 nM/40 nM, KRAS-WT and G12D/SOS=1 nM/40 nM, KRAS-G12V/SOS=1.25 nM/160 nM, KRAS-G12A/S/SOS=1 nM/160 nM, KRAS-G12R/SOS=1 nM/320 nM, KRAS-Q61H/SOS=1 nM/320 nM, KRAS-G13D/SOS=1.25 nM/[…], HRAS-WT and NRAS-WT=1.25 nM/40 nM.
(§5) The time-resolved fluorescence resonance energy transfer (TR-FRET) signal is measured on an Envision (PerkinElmer) plate reader: Excitation filter=340 nm; emission1=495 nm; emission2=520 nm; dichroic mirror=D400/D505; delay time=[…]. The signal of each well is determined as the ratio of the emission at 520 nm to that at 495 nm. Percent effect of each well is determined after normalization to control wells containing DMSO (no effect) or a saturating concentration of inhibitor (max effect). The apparent effect as a function of compound concentration is fit to a four-parameter logistic equation.

NRAS = NRAS (Homo sapiens (Human), UniProt P01111); test: SOS-catalyzed nucleotide exchange assay (GNE), NRAS-WT; type: biochemical; details: TR-FRET, 60 min preincubation
From the text: as §1, §2, §3, §4, §5

KRAS G13D = KRAS G13D (Homo sapiens (Human), UniProt P01116, G13D); test: SOS-catalyzed nucleotide exchange assay (GNE), KRAS G13D; type: biochemical; details: TR-FRET, 60 min preincubation
From the text: as §1, §2, §3, §4, §5

Sequence of KRAS G13D (P01116 other isoform, or with tags, fused parts or gaps G13D (already in the parent)): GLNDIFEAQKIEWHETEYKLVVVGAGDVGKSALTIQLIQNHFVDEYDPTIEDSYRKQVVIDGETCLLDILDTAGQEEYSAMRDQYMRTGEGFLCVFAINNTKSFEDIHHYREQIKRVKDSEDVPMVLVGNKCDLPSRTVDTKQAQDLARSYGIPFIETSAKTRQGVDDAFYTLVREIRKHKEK
Sequence of NRAS (P01111 other isoform, or with tags, fused parts or gaps): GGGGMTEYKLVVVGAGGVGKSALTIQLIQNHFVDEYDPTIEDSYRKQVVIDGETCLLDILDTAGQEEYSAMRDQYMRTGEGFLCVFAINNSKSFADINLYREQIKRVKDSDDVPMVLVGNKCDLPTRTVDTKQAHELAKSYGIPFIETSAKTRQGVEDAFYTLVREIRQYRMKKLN
Sequence of KRAS WT (P01116 other isoform, or with tags, fused parts or gaps): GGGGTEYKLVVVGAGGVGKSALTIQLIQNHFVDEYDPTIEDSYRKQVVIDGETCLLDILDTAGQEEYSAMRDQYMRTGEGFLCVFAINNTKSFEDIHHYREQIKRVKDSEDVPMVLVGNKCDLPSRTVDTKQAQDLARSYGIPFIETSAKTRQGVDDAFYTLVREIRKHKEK

Row | SMILES | pIC50 (KRAS WT) | pIC50 ([1]; Homo sapiens, SW-620, 2 h) | pIC50 ([1]; 2 h) | pIC50 (NRAS) | pIC50 (KRAS G13D)
1 | F/C=C1/CN2CCC[C@@]2(COc2nc3c4c(nc(-c5c(C6CC6)c(Cl)cc6[nH]ncc56)c(F)c4n2)OC[C@@H]2COCCCN32)C1 [Ex-1, (8aS)-5-(6-chloro-5-cyclopropyl-1H-indazol-4-yl)-4-fluoro-2-(((S,Z)-2-(fluoromethylene)tetrahydro-1H-pyrrolizin-7a(5H)-yl)methoxy)-8a,9,12,13-tetrahydro-8H,11H-7,10-dioxa-1,3,6,13a-tetraazanaphtho[1,8-ab]heptalene] | 9.06 | – | 8.59 | < 4.96 | 8.43
2 | CCc1c(F)ccc2cc3[nH]ncc3c(-c3nc4c5c(nc(OC[C@@]67CCCN6C[C@H](F)C7)nc5c3F)N3CCCOC[C@H]3CO4)c12 [Ex-2, (8aS)-5-(5-ethyl-6-fluoro-1H-benzo[f]indazol-4-yl)-4-fluoro-2-(((2R,7aS)-2-fluorotetrahydro-1H-pyrrolizin-7a(5H)-yl)methoxy)-8a,9,12,13-tetrahydro-8H,11H-7,10-dioxa-1,3,6,13a-tetraazanaphtho[1,8-ab]heptalene] | 8.96 | – | 8.62 | 5.15 | 9.00
3 | Fc1c(-c2c(C3CC3)c(Cl)cc3[nH]ncc23)nc2c3c(nc(OC[C@@]45CCCN4C[C@H](F)C5)nc13)N1CCCOC[C@H]1CO2 [Ex-3, (8aS)-5-(6-chloro-5-cyclopropyl-1H-indazol-4-yl)-4-fluoro-2-(((2R,7aS)-2-fluorotetrahydro-1H-pyrrolizin-7a(5H)-yl)methoxy)-8a,9,12,13-tetrahydro-8H,11H-7,10-dioxa-1,3,6,13a-tetraazanaphtho[1,8-ab]heptalene] | 8.60 | 8.41 | – | – | –
4 | CCc1c(F)ccc2cc3[nH]nc(C)c3c(-c3nc4c5c(nc(OC[C@@]67CCCN6C/C(=C\F)C7)nc5c3F)N3CCCOC[C@H]3CO4)c12 [Ex-7, (8aS)-5-(5-ethyl-6-fluoro-3-methyl-1H-benzo[f]indazol-4-yl)-4-fluoro-2-(((S,Z)-2-(fluoromethylene)tetrahydro-1H-pyrrolizin-7a(5H)-yl)methoxy)-8a,9,12,13-tetrahydro-8H,11H-7,10-dioxa-1,3,6,13a-tetraazanaphtho[1,8-ab]heptalene] | 8.85 | – | 8.60 | 5.05 | 8.62

Second part, led by results:

Row | pIC50 (KRAS WT) | pIC50 ([1]; Homo sapiens, SW-620, 2 h) | SMILES | pIC50 ([1]; 2 h) | pIC50 (NRAS) | pIC50 (KRAS G13D)
5 | > 9.16 | > 8.82 | CCc1c(F)ccc2cc3[nH]ncc3c(-c3nc4c5c(nc(OC[C@@]67CCCN6C/C(=C\F)C7)nc5c3F)N3CCCOC[C@H]3CO4)c12 [Ex-4, (8aS)-5-(5-ethyl-6-fluoro-1H-benzo[f]indazol-4-yl)-4-fluoro-2-(((S,Z)-2-(fluoromethylene)tetrahydro-1H-pyrrolizin-7a(5H)-yl)methoxy)-8a,9,12,13-tetrahydro-8H,11H-7,10-dioxa-1,3,6,13a-tetraazanaphtho[1,8-ab]heptalene] | – | 5.55 | 9.05
6 | > 9.16 | 8.89 | F/C=C1\CN2CCC[C@@]2(COc2nc3c4c(nc(-c5c(C6(F)CC6)c(Cl)cc6[nH]ncc56)c(F)c4n2)OC[C@@H]2COCCCN32)C1 [Ex-5, (8aS)-5-(6-chloro-5-(1-fluorocyclopropyl)-1H-indazol-4-yl)-4-fluoro-2-(((S,Z)-2-(fluoromethylene)tetrahydro-1H-pyrrolizin-7a(5H)-yl)methoxy)-8a,9,12,13-tetrahydro-8H,11H-7,10-dioxa-1,3,6,13a-tetraazanaphtho[1,8-ab]heptalene] | – | < 4.96 | 8.92
7 | 8.80 | 8.47 | CCc1c(F)ccc2cc3[nH]nc(C)c3c(-c3nc4c5c(nc(OC[C@@]67CCCN6C[C@H](F)C7)nc5c3F)N3CCCOC[C@H]3CO4)c12 [Ex-6, (8aS)-5-(5-ethyl-6-fluoro-3-methyl-1H-benzo[f]indazol-4-yl)-4-fluoro-2-(((2R,7aS)-2-fluorotetrahydro-1H-pyrrolizin-7a(5H)-yl)methoxy)-8a,9,12,13-tetrahydro-8H,11H-7,10-dioxa-1,3,6,13a-tetraazanaphtho[1,8-ab]heptalene] | – | 5.00 | 8.72
